{"source": "paper PMC10318456", "about": "“Selective inhibitors of the PSEN1–gamma-secretase complex” (The Journal of Biological Chemistry, 2023)", "key": {"[1]": {"biological_target": "T1, PSEN1-APH1B γ-secretase complex (Homo sapiens, UniProt P49768)", "T1 construct": "expressed in transfected cells; host or cells: Psen1/2 double KO/Aph1ABC triple KO MEFs, pMSCV retroviral PSEN-IRES-APH1", "assay": "Aβ40 secretion by MEF cell line expressing only PSEN1-APH1B γ-secretase (APP-C99-GFP reporter)", "assay_type": "cell-based", "conditions": "8 h, Beerse site unless otherwise indicated, read-out: IC50, Aβ40 peptides", "description": "(§1) Mouse embryonic fibroblast (MEF) cells deficient for the Psen and Aph1 genes (Psen1/2^−/−, Aph1ABC^−/−) were reconstituted with human PSEN1 or PSEN2 and with human APH1A or APH1B to generate four independent cell lines, each constitutively expressing exclusively one type of γ-secretase complex (Fig. S1A) ([19]). A human APP-C99-GFP reporter was introduced to enable the measurement of Aβ peptides in the conditioned media of the cells to monitor γ-secretase activity. The assay was established in a 96-well format.\n(§2) Conditional Psen1/2 double KO mice were crossed with conditional Aph1ABC triple KO mice ([29], [52], [58], [59]). At embryonic day 7.5, embryos were dissected and dissociated, and cells were plated in the presence of Dulbecco’s modified Eagle’s medium (DMEM)/F12 50% fetal calf serum (FCS) (Invitrogen). Primary MEFs were immortalized by transduction with LargeT antigen. Psen1/2 double KO/Aph1ABC triple KO MEFs were generated by transduction with a Cre-GFP–expressing adenoviral vector, and GFP-positive MEFs were sorted by fluorescence-activated cell sorting analysis. Psen1/2 Aph1ABC-deficient MEFs were maintained in DMEM/f12 10% FCS. To rescue γ-secretase expression, Psen1/2 double KO/Aph1ABC triple KO MEFs were transduced using Murine Stem Cell Virus retroviral vector system (pMSCV) viral vectors (Clontech) containing the human coding sequences of the different PSEN and APH1 homologs and the zeocin selection marker. An Internal Ribosome Entry Site sequence was cloned between the coding sequences for PSEN and APH1 to ensure co-expression of both proteins. Stable transfected cell lines were selected using 500-μg/ml zeocin (Invitrogen). Four different combinations were made: PSEN1 and APH1AL, PSEN1 and APH1B, PSEN2 and APH1AL, and PSEN2 and APH1B. These cell lines were transduced with pMSCV viral vectors (Clontech) expressing APP-C99-GFP-puromycin. After puromycin selection (5 μg/ml), GFP-positive cells were selected through FACS sorting. For the alanine mutagenesis experiment, pMSCV PSEN1-APH1A viral vectors were generated by using a long PCR-based QuikChange strategy (Stratagene). Stable cell lines without clonal selection were generated for each mutant as described above. All cell lines were regularly tested for the absence of mycoplasma and used for maximum 20 passages in culture.\n(§3) The number of plated cells and incubation times were determined in respect to linearity of Aβ peptide secretion, the dynamic range of Aβ peptide quantification in the medium, and sensitivity to dimethylsulfoxide (DMSO). […] MEF cells were plated in DMEM F12 supplemented with 10% FCS at 10,000 cells per well in 96-well clear bottom plates in the late afternoon and cultured for 16 h at 37 °C, 5% CO2. In the morning of the second day, the medium was replaced with 60 μl of DMEM/F12 supplemented with 2% FCS, and GSI or DMSO (controls) were added. Compounds were tested in serial dilutions with concentrations ranging from […] to 0.1 nM with 3-fold changes. The final concentration of DMSO in all wells was 0.2%. Plates were put in the incubator again at 37 °C, 5% CO2. After 8 h, the culture media were collected, and 30 μl was used to measure Aβ40 peptides. The cell viability was assessed using the CellTiter-Glo Luminescent assay (Promega) that measures ATP production. All screens were performed at one site, and reported IC50 values throughout the manuscript are from this site (Beerse) unless otherwise indicated.\nStandard 96-well SECTOR plates (MSD) were coated with 1.5 μg/ml anti-Aβ JRFcAβ40/28 capture antibody in a final volume of 50 μl of PBS 0.05% Tween 20."}, "[2]": {"system": "PSEN1 versus PSEN2 γ-secretase complexes", "assay": "Comparison of the four MEF cell lines: selectivity between γ-secretase complexes (IC50 ratios)", "assay_type": "cell-based, human", "conditions": "for selectivity toward the different γ-secretase complexes / potency toward all four γ-secretase activities: four MEF cell lines; for potency toward all four γ-secretase activities: in words", "description": "as §1\nGraphPad Prism 7 software was used to generate inhibition fitting curves (four-parameter logistic equation, nonlinear regression) and to determine IC50 and 95% CI values (Fig. S2). Selectivity values (IC50 ratios of PSEN1 versus PSEN2) above 10 are highlighted in red.\nas §3\nGraphPad Prism 7 software (https://www.graphpad.com) was used to generate inhibition fitting curves (four-parameter logistic equation, nonlinear regression) and to determine IC50 values and 95% CI."}, "[3]": {"biological_target": "T2, PSEN1-APH1A γ-secretase complex (Homo sapiens, UniProt P49768)", "T2 construct": "expressed in transfected cells; host or cells: Psen1/2 double KO/Aph1ABC triple KO MEFs, pMSCV retroviral PSEN-IRES-APH1", "assay": "Aβ40 secretion by MEF cell line expressing only PSEN1-APH1A γ-secretase (APP-C99-GFP reporter)", "assay_type": "cell-based", "conditions": "8 h, Beerse site unless otherwise indicated, read-out: IC50, Aβ40 peptides", "description": "as §1, §2\n(§4) The number of plated cells and incubation times were determined in respect to linearity of Aβ peptide secretion, the dynamic range of Aβ peptide quantification in the medium, and sensitivity to dimethylsulfoxide (DMSO). […] The cell viability was assessed using the CellTiter-Glo Luminescent assay (Promega) that measures ATP production. […]"}, "[4]": {"biological_target": "T3, PSEN2-APH1A γ-secretase complex (Homo sapiens, UniProt P49810+Q92542+Q96BI3+Q9NZ42)", "T3 construct": "expressed in transfected cells; host or cells: Psen1/2 double KO/Aph1ABC triple KO MEFs, pMSCV retroviral PSEN-IRES-APH1", "assay": "Aβ40 secretion by MEF cell line expressing only PSEN2-APH1A γ-secretase (APP-C99-GFP reporter)", "assay_type": "cell-based", "conditions": "8 h, Beerse site unless otherwise indicated, read-out: IC50, Aβ40 peptides", "description": "as §1\nas §2, with “Four different combinations were made: PSEN1 and APH1AL, PSEN1 and APH1B, PSEN2 and APH1AL, and PSEN2 and APH1B. These cell lines were transduced with pMSCV viral vectors (Clontech) expressing APP-C99-GFP-puromycin. After puromycin selection (5 μg/ml), GFP-positive cells were selected through FACS sorting. For the alanine mutagenesis experiment, pMSCV PSEN1-APH1A viral vectors were generated by using a long PCR-based QuikChange strategy (Stratagene). Stable cell lines without clonal selection were generated for each mutant as described above. All cell lines were regularly tested for the absence of mycoplasma and used for maximum 20 passages in culture.” left out\nas §4"}, "[5]": {"biological_target": "T4, PSEN2-APH1B γ-secretase complex (Homo sapiens, UniProt P49810+Q8WW43+Q92542+Q9NZ42)", "T4 construct": "expressed in transfected cells; host or cells: Psen1/2 double KO/Aph1ABC triple KO MEFs, pMSCV retroviral PSEN-IRES-APH1", "assay": "Aβ40 secretion by MEF cell line expressing only PSEN2-APH1B γ-secretase (APP-C99-GFP reporter)", "assay_type": "cell-based", "conditions": "8 h, Beerse site unless otherwise indicated, read-out: IC50, Aβ40 peptides", "description": "as §1\nConditional Psen1/2 double KO mice were crossed with conditional Aph1ABC triple KO mice ([29], [52], [58], [59]). At embryonic day 7.5, embryos were dissected and dissociated, and cells were plated in the presence of Dulbecco’s modified Eagle’s medium (DMEM)/F12 50% fetal calf serum (FCS) (Invitrogen). […] Psen1/2 double KO/Aph1ABC triple KO MEFs were generated by transduction with a Cre-GFP–expressing adenoviral vector, and GFP-positive MEFs were sorted by fluorescence-activated cell sorting analysis. […]\nas §4"}, "[6]": {"system": "PSEN1–γ-secretase complex compared to PSEN2–γ-secretase complexes", "conditions": "cell-free in vitro assays; cited from earlier work"}, "[7]": {"system": "WT and PSEN2-deficient mice", "parameters": "method as in PMID 23197721", "conditions": "cited from earlier work"}, "[8]": {"system": "T cell acute lymphoblastic leukemia", "parameters": "method as in PMID 31142678", "conditions": "mice; cited from earlier work"}, "APP or Notch processing": {"system": "APP or Notch processing", "conditions": "in vitro; cited from earlier work"}}, "note": "Several values for one entry are separate records, joined by “and”; a condition that tells them apart may be missing. Identical values can stand only once."}
{"compound": "O=S(=O)(N[C@H](CO)C(C(F)(F)F)C(F)(F)F)c1ccc(Cl)s1", "note": "[begacestat]", "values": [{"measurement": "IC50", "setting": "[1]", "result": 17.9, "unit": "nM"}]}
{"compound": "CC(C)[C@H](O)C(=O)N[C@@H](C)C(=O)N[C@@H]1C(=O)N(C)CCc2ccccc21", "note": "[semagacestat]", "values": [{"measurement": "IC50", "setting": "[1]", "result": 24.9, "unit": "nM"}, {"measurement": "selectivity for PSEN1 complexes versus PSEN2 complexes", "setting": "[2]; IC50 ratios of PSEN1 versus PSEN2, MEF cell lines", "result": "6–13 fold"}, {"measurement": "selectivity toward the different γ-secretase complexes", "setting": "[2]", "result": "< 10", "unit": "fold"}]}
{"compound": "CC(C)(C(=O)NCC(F)(F)C(F)(F)F)C(=O)N[C@@H]1C(=O)Nc2ccccc2-c2ccccc21", "note": "[RO-4929097]", "values": [{"measurement": "potency toward all four γ-secretase activities", "setting": "[2]", "result": "low nanomolar potencies"}]}
{"compound": "C[C@H](NC(=O)[C@@H](O)c1cc(F)cc(F)c1)C(=O)N[C@@H]1C(=O)N(C)c2ccccc2-c2ccccc21", "note": "[LY411575]", "values": [{"measurement": "selectivity toward the different γ-secretase complexes", "setting": "[2]", "result": "< 10", "unit": "fold"}, {"measurement": "potency toward all four γ-secretase activities", "setting": "[2]", "result": "low nanomolar potencies"}, {"measurement": "selectivity toward the different γ-secretase complexes", "setting": "[2]; listed as LY-411575", "result": "without convincing selectivity"}]}
{"compound": "O=S(=O)(NC1CCC(c2cc(F)ccc2F)(S(=O)(=O)c2ccc(Cl)cc2)CC1)C(F)(F)F", "note": "(stereo not drawn) [MRK-560, N-[cis-4-[(4-chlorophenyl)sulfonyl]-4-(2,5-difluorophenyl)cyclohexyl]-1,1,1-trifluoromethanesulfonamide]", "values": [{"measurement": "IC50", "setting": "[3]", "result": 1.4, "unit": "nM"}, {"measurement": "IC50", "setting": "[1]", "result": "0.42 nM and 0.4 nM"}, {"measurement": "IC50", "setting": "[4]", "result": "> 130", "unit": "nM"}, {"measurement": "IC50", "setting": "[5]", "result": "> 130", "unit": "nM"}, {"measurement": "selectivity PSEN1–APH1B versus PSEN1–APH1A", "setting": "[2]; MEF cell lines", "result": 4, "unit": "fold"}, {"measurement": "selectivity for PSEN1 complexes versus PSEN2 complexes", "setting": "[6]", "result": 5, "unit": "fold"}, {"measurement": "selectivity toward the PSEN1–γ-secretase complex compared to PSEN2–γ-secretase complexes", "setting": "[6]", "result": 37, "unit": "fold"}, {"measurement": "Aβ levels", "setting": "[7]; WT and PSEN2-deficient mice", "result": "potently and dose dependently reduced Aβ levels"}, {"measurement": "safety of treatment", "setting": "[7]; WT mice", "result": "safe"}, {"measurement": "Notch-related toxicity", "setting": "[7]; mice genetically deficient for PSEN2", "result": "caused major Notch-related toxicity"}, {"measurement": "protection in T cell acute lymphoblastic leukemia", "setting": "[8]", "result": "protected the mice"}, {"measurement": "selectivity versus APP or Notch processing", "setting": "APP or Notch processing", "result": "does not show selectivity"}]}
